According to patent US8309557B2, “Pyrimidin-4-ylpropanedinitrile derivatives, processes for their preparation and their use as herbicides and plant growth regulators” (Bayer Intellectual Property GmbH, priority 2009, dated 2012):

Columns and labels:
Type in all cases: in vivo
Matricaria inodora = assay: Herbicidal effect post-emergence, MATIN
Method: (§1) Seeds of mono- and dicotyledonous weed plants and crop plants are planted in wood-fiber pots in sandy loam, covered with earth and grown in a greenhouse under good growth conditions. 2 to 3 weeks after sowing, the test plants are treated in the single-leaf stage. The compounds according to the invention, formulated in the form of wettable powders (WP) or as emulsion concentrates (EC), are then sprayed onto the green plant parts as aqueous suspension or emulsion using an application rate of 600 to 800 l of water/ha (converted) with the addition of 0.2% by weight of wetting agent. After the test plants had been in the greenhouse for ca. 3 weeks under optimum growth conditions, the effect of the preparations is scored visually in comparison with untreated controls (herbicidal effect in percent (%): 100% effect=plants have died off, 0% effect=as control plants).

Veronica persica [1] = assay: Herbicidal effect post-emergence, VERPE
Method: as §1

Amaranthus retroflexus [2] = assay: Herbicidal effect post-emergence, AMARE
Method: as §1

[3] = tested on: Polygonum (Fallopia) convolvulus; assay: Herbicidal effect post-emergence, POLCO
Method: as §1

Abutilon theophrasti = assay: Herbicidal effect post-emergence, ABUTH
Method: as §1

Setaria viridis = assay: Herbicidal effect post-emergence, SETVI
Method: as §1

Viola tricolor [4] = assay: Herbicidal effect post-emergence, VIOTR
Method: as §1

Echinochloa crus-galli = assay: Herbicidal effect post-emergence, ECHCG
Method: as §1

Stellaria media = assay: Herbicidal effect post-emergence, STEME
Method: as §1

Amaranthus retroflexus [5] = assay: Herbicidal effect pre-emergence, AMARE; details: 320 g/hectare, visual grading after 3 weeks vs untreated controls
Description: (§2) Seeds of mono- and dicotyledonous weed plants and crop plants are planted in wood-fiber pots in sandy loam and covered with earth. The compounds according to the invention, formulated in the form of wettable powders (WP) or as emulsion concentrates (EC), are then applied to the surface of the covering earth as aqueous suspension or emulsion at an application rate corresponding to 320 g/hectare at an application rate of 600 to 800 l of water/ha (converted) with the addition of 0.2% wetting agent.
(§3) Following treatment, the pots are placed in a greenhouse and kept under good growth conditions for the test plants. The visual grading of the damage to the test plants is carried out after a test time of 3 weeks in comparison to untreated controls (herbicidal effect in percent (%): 100% effect=plants have died off, 0% effect=as control plants).

Veronica persica [6] = assay: Herbicidal effect pre-emergence, VERPE; details: 320 g/hectare, visual grading after 3 weeks vs untreated controls
Description: as §2, §3

Viola tricolor [7] = assay: Herbicidal effect pre-emergence, VIOTR; details: 320 g/hectare, visual grading after 3 weeks vs untreated controls
Description: as §2, §3

[8] = 0.32 kg and less of active substance per hectare, visual score after ca. 3 weeks vs untreated controls

SMILES	Effect in % in respect of stated plant, MATIN (Matricaria inodora) [%]	Effect in % in respect of stated plant, VERPE (Veronica persica [1]) [%]	Effect in % in respect of stated plant, AMARE (Amaranthus retroflexus [2]) [%]	Effect in % in respect of stated plant, POLCO [3] [%]	Effect in % in respect of stated plant, ABUTH (Abutilon theophrasti) [%]	Effect in % in respect of stated plant, VERPE (Veronica persica [6]) [%]	further results
N.N#CC(C#N)c1nc(-c2ccc(F)cc2)nc(N)c1Cl [Compound 300]	80	80	80	–	–	–	–
CN.N#CC(C#N)c1nc(-c2ccc(Cl)cc2)nc(N)c1Cl [Compound 309]	85	90	95	90	90	100	Effect in % in respect of stated plant, SETVI (Setaria viridis): 80%; Effect in % in respect of stated plant, VIOTR (Viola tricolor [4]): 85%; Effect in % in respect of stated plant, ECHCG (Echinochloa crus-galli): 90%; Effect in % in respect of stated plant, STEME (Stellaria media): 80%; Effect in % in respect of stated plant, AMARE (Amaranthus retroflexus [5]): 85%; Effect in % in respect of stated plant, VIOTR (Viola tricolor [7]): 100%
N.N#CC(C#N)c1nc(-c2ccc(Cl)cc2)nc(N)c1Br [Compound 313]	90	100	100	–	80	–	Effect in % in respect of stated plant, VIOTR (Viola tricolor [4]): 80%; Effect in % in respect of stated plant, STEME (Stellaria media): 90%
N#C[C-](C#N)c1nc(-c2ccc(Cl)c(Cl)c2)nc(N)c1Cl.[Na+] [Compound 340]	90	90	90	90	80	–	–
N.N#CC(C#N)c1nc(-c2ccc(Cl)cc2Cl)nc(N)c1Cl [Compound 375]	90	90	100	100	90	100	Effect in % in respect of stated plant, AMARE (Amaranthus retroflexus [5]): 100%; Effect in % in respect of stated plant, VIOTR (Viola tricolor [7]): 80%
N.N#CC(C#N)c1nc(-c2ccc(F)cc2F)nc(N)c1Cl [Compound 383]	90	90	90	100	80	–	–
Cc1ccc(-c2nc(N)c(Cl)c(C(C#N)C#N)n2)cc1F.N [Compound 385]	80	–	100	80	80	–	–
Cc1cc(-c2nc(N)c(Cl)c(C(C#N)C#N)n2)ccc1F.N [Compound 389]	–	80	80	80	80	–	–
N.N#CC(C#N)c1nc(-c2cccc(Cl)c2Cl)nc(N)c1Cl [Compound 390]	–	80	90	80	–	–	–
Cc1ccc(-c2nc(N)c(Cl)c(C(C#N)C#N)n2)c(F)c1.N [Compound 391]	–	–	–	80	–	–	–
N#CC(C#N)c1nc(-c2ccccc2)nc(N)c1Cl [Ex. No. 1, [6-Amino-5-chloro-2-phenylpyrimidin-4-yl]propanedinitrile]	–	–	–	–	–	–	herbicidal effect (Matricaria inodora; [8]): at least 80%; herbicidal effect [3, 8]: at least 80%; herbicidal effect (Veronica persica [1]; [8]): at least 80%
N#CC(C#N)c1nc(-c2ccc(Cl)cc2)nc(N)c1Cl [Ex. No. 29, [6-Amino-5-chloro-2-(4-chlorophenyl)pyrimidin-4-yl]propanedinitrile]	–	90	–	–	80	100	Effect in % in respect of stated plant, VIOTR (Viola tricolor [4]): 80%; Effect in % in respect of stated plant, VIOTR (Viola tricolor [7]): 80%
N#CC(C#N)c1nc(-c2ccc(C(F)(F)F)cc2)nc(N)c1Cl [compound 45]	80	90	–	80	–	–	Effect in % in respect of stated plant, SETVI (Setaria viridis): 80%; Effect in % in respect of stated plant, VIOTR (Viola tricolor [4]): 80%
N#CC(C#N)c1nc(-c2ccc(Cl)c(C(F)(F)F)c2)nc(N)c1Cl [compound 87]	90	90	–	–	–	–	–
N#CC(C#N)c1nc(-c2ccc(Cl)c(Cl)c2)nc(N)c1Cl [compound 104]	90	90	90	80	80	–	Effect in % in respect of stated plant, SETVI (Setaria viridis): 80%; Effect in % in respect of stated plant, VIOTR (Viola tricolor [4]): 80%; Effect in % in respect of stated plant, ECHCG (Echinochloa crus-galli): 80%
N#CC(C#N)c1nc(-c2ccc(Cl)cc2Cl)nc(N)c1Cl [compound 186]	90	90	100	100	100	100	Effect in % in respect of stated plant, VIOTR (Viola tricolor [4]): 80%; Effect in % in respect of stated plant, STEME (Stellaria media): 90%; Effect in % in respect of stated plant, AMARE (Amaranthus retroflexus [5]): 90%
N#CC(C#N)c1nc(-c2ccc(F)cc2F)nc(N)c1Cl [compound 201]	80	90	90	90	–	–	–
N#CC(C#N)c1nc(-c2cc(F)ccc2N)nc(N)c1Cl [compound 203]	–	–	–	–	–	90	Effect in % in respect of stated plant, AMARE (Amaranthus retroflexus [5]): 100%
Cc1ccc(-c2nc(N)c(Cl)c(C(C#N)C#N)n2)cc1F [compound 204]	80	80	90	80	90	–	Effect in % in respect of stated plant, ECHCG (Echinochloa crus-galli): 80%
Cc1cc(-c2nc(N)c(Cl)c(C(C#N)C#N)n2)ccc1F [compound 205]	–	–	–	–	–	100	Effect in % in respect of stated plant, VIOTR (Viola tricolor [7]): 100%
N#CC(C#N)c1nc(-c2cccc(Cl)c2Cl)nc(N)c1Cl [compound 207]	80	90	100	100	80	–	Effect in % in respect of stated plant, STEME (Stellaria media): 80%
N#CC(C#N)c1nc(-c2cc(F)c(Cl)c(F)c2)nc(N)c1Cl [compound 210]	–	80	90	–	–	80	Effect in % in respect of stated plant, VIOTR (Viola tricolor [7]): 100%
N#CC(C#N)c1nc(C2CCCCC2)nc(N)c1Cl [compound 240]	80	90	–	–	80	–	–
